Assay results from US10421765B2, “Tetrahydropyrido[4,3-d]pyrimidine inhibitors of ATR kinase” (Board of Regents, The University of Texas System, priority 2017, dated 2019).
Read-outs that look alike come from different tables or passages of the source.

Assays:
[1] = system: ATR-driven phosphorylation of Chk1 kinase at Serine 345 in HT-29 colorectal adenocarcinoma cells; experiment: pCHK1 cellular assay (CHK1 p-Ser345 AlphaScreen SureFire); type: cell-based; settings: 4-nitroquinoline N-oxide 12 uM, read-out: Cell IC50 (pCHK1 IC50 values)
Experimental: Inhibitors of ATR kinase are effective at inhibiting the ATR-driven phosphorylation of the downstream target Chk1 kinase at Serine 345, following the addition of 4-nitroquinoline N-oxide, a chemical used to induce DNA damage. Cellular IC50 for the inhibitors of ATR described herein were measured in HT-29 colorectal adenocarcinoma cells. HT-29 cells were routinely maintained in McCoy's 5A media (ATCC Catalog #30-2007) supplemented with 10% fetal bovine serum (Sigma Catalog #F2442) and 1× Penicillin-Streptomycin (Gibco Catalog #15140-122) using a humidified incubator (37° C., 5% CO2, and ambient O2).
In preparation for the CHK1 (p-Ser345) ALPHASCREEN® SUREFIRE® assay, cells were harvested and resuspended in McCoy's 5A media supplemented with 10% fetal bovine serum and 1× Penicillin-Streptomycin. Cells were seeded onto a 384-well black CELLSTAR® Tissue Culture Plate (VWR Catalog #89085-314) at a density of 13,000 cells/well in a volume of 40 uL. The microplate was incubated overnight (approximately 20 hours) at 37° C. with 5% CO2 and ambient O2. Stock solutions of the test compounds were prepared in 100% DMSO (Sigma, Catalog #D2650) and serially diluted 1:3 using 100% DMSO. Compounds were additionally diluted 1:33 in culture medium, and 10 ul/well were transferred to the tissue culture plate. Following the compound addition the microplate was incubated at 37° C. for 90 minutes. 10 uL of 4-nitroquinoline N-oxide (Sigma Aldrich Catalog #N8141-1G) diluted in media (final concentration 12 uM) were added to the tissue culture plate followed by a 120 minute incubation at 37° C. The cells were then washed with PBS and lysed using 10 uL/well SUREFIRE® Kit lysis buffer diluted to 1× in water (PerkinElmer Catalog #TGRCHK1S50K), with mixing on an orbital shaker at 500 rpm for 20 min at RT. Lysates were frozen at −20° C. overnight.
4 uL/well of lysate was then transferred from the tissue culture plate to a 384-well, white, low volume, PROXIPLATE™ (PerkinElmer Catalog #600828). 5 uL/well of the acceptor bead solution, prepared by diluting SUREFIRE® Kit activation buffer (PerkinElmer Catalog #TGRCHK1S50K) and ALPHASCREEN® Protein A acceptor beads (PerkinElmer Catalog #6760617R) in SUREFIRE® Kit reaction buffer (PerkinElmer Catalog #TGRCHK1S50K), were added to the lysates under subdued light and incubated at room temperature for 120 min. 2 uL/well of the donor bead solution, prepared by diluting ALPHASCREEN® Streptavidin donor beads (PerkinElmer Catalog #6760617R) in SUREFIRE® Kit dilution buffer (PerkinElmer Catalog #TGRCHK1S50K), were added under subdued light and incubated at room temperature for an addition 120 minutes. The pCHK1 ALPHASCREEN® signal was measured using an ENVISION® plate reader (PerkinElmer). IC50 values were calculated using a four-parameter logistic curve fit using Genedata Screener software. Percent of control for each compound concentration was calculated by the following formula: 100*(Compound−Min)/(Max−Min) where “Max” is the high control, DMSO, and “Min” is the low control, 5 uM ATR inhibitor.

ATR/ATRIP complex = ATR/ATRIP complex (Homo sapiens (Human), UniProt Q13535); experiment: ATR/ATRIP enzymatic assay (Caliper-based); type: biochemical; settings: FAM-labeled RAD17 peptide, ATP
Experimental: Human full-length FLAG-TEV-ATR and His6-ATRIP were co-expressed in HEK293 cells. The cell pellet (20 g) was harvested and lysed in 100 mL of lysis buffer (20 mM Tris-HCl pH 7.5 at room temperature, 137 mM NaCl, 10% glycerol, 1 mM DTT, 1% (v/v) Tween-20, 0.1% (v/v) NP-40, complete protease inhibitor cocktail tablets, phosphatase inhibitor cocktail tablets, 2 mM MgCl2, 0.2 mM EDTA, and 1 mM ATP). After sonication and centrifugation, the supernatant was incubated at 4° C. for 3 hours with 1 mL of anti-FLAG resin (Sigma catalog #A2220) that had been pre-equilibrated in buffer A (20 mM Tris-HCl pH 7.5 at room temperature, 137 mM NaCl, 10% glycerol, 1 mM DTT, 2 mM MgCl2, and 0.2 mM EDTA). The sample was loaded into a column, and then washed with buffer A three times. Protein was subsequently eluted with 2 ml of buffer B (buffer A+200 μg/ml 3×FLAG peptide).
The ability of new chemical matter to inhibit the ATR catalytic activity in this ATR/ATRIP complex was assessed using a Caliper-based assay. A 2x enzyme solution (i.e., 4 nM enzyme) was prepared using 1× Kinase Reaction Buffer (25 mM HEPES pH 8, 0.0055% Brij-35, 10 mM MnCl2, and 1 mM DTT). A 2x peptide solution was then prepared consisting of 10 uM FAM-labeled RAD17 peptide (GL Biochem, catalog #524315) in 1× Kinase Reaction Buffer supplemented with 2 μM ATP. 10 μL of the 2× enzyme solution was transferred to an assay plate containing 60 nL of test compound (from a 3× serial dilution) in 100% DMSO. Following a 30 minute incubation at 28° C., 10 μL of the 2× peptide solution was then transferred to the same assay plate. The reaction was allowed to incubate at 28° C. for 6 hours. After adding […] of stop buffer (100 mM HEPES pH 7.5, 0.015% Brij-35, 0.2% Coating-3 Reagent (PerkinElmer, catalog #PN760050), and 50 mM EDTA), data were collected on a Caliper instrument. Conversion values were converted to inhibition values via the following equation: % inhibition=(max−conversion)/(max−min)*100, whereby “max” corresponds to the DMSO control and “min” corresponds to the low control. IC50 values were calculated using the following equation in XLFit: Y=Bottom+(Top−Bottom)/1+(IC50/X)^HillSlope).

[2] = Homo sapiens, HT-29, HT-29 cells
[3] = read-out: ATR/ATRIP Enzyme IC50
[4] = estimated range, read-out: ATR/ATRIP Enzyme IC50 (estimated class)

Chain of ATR/ATRIP complex (Q13535 whole entry): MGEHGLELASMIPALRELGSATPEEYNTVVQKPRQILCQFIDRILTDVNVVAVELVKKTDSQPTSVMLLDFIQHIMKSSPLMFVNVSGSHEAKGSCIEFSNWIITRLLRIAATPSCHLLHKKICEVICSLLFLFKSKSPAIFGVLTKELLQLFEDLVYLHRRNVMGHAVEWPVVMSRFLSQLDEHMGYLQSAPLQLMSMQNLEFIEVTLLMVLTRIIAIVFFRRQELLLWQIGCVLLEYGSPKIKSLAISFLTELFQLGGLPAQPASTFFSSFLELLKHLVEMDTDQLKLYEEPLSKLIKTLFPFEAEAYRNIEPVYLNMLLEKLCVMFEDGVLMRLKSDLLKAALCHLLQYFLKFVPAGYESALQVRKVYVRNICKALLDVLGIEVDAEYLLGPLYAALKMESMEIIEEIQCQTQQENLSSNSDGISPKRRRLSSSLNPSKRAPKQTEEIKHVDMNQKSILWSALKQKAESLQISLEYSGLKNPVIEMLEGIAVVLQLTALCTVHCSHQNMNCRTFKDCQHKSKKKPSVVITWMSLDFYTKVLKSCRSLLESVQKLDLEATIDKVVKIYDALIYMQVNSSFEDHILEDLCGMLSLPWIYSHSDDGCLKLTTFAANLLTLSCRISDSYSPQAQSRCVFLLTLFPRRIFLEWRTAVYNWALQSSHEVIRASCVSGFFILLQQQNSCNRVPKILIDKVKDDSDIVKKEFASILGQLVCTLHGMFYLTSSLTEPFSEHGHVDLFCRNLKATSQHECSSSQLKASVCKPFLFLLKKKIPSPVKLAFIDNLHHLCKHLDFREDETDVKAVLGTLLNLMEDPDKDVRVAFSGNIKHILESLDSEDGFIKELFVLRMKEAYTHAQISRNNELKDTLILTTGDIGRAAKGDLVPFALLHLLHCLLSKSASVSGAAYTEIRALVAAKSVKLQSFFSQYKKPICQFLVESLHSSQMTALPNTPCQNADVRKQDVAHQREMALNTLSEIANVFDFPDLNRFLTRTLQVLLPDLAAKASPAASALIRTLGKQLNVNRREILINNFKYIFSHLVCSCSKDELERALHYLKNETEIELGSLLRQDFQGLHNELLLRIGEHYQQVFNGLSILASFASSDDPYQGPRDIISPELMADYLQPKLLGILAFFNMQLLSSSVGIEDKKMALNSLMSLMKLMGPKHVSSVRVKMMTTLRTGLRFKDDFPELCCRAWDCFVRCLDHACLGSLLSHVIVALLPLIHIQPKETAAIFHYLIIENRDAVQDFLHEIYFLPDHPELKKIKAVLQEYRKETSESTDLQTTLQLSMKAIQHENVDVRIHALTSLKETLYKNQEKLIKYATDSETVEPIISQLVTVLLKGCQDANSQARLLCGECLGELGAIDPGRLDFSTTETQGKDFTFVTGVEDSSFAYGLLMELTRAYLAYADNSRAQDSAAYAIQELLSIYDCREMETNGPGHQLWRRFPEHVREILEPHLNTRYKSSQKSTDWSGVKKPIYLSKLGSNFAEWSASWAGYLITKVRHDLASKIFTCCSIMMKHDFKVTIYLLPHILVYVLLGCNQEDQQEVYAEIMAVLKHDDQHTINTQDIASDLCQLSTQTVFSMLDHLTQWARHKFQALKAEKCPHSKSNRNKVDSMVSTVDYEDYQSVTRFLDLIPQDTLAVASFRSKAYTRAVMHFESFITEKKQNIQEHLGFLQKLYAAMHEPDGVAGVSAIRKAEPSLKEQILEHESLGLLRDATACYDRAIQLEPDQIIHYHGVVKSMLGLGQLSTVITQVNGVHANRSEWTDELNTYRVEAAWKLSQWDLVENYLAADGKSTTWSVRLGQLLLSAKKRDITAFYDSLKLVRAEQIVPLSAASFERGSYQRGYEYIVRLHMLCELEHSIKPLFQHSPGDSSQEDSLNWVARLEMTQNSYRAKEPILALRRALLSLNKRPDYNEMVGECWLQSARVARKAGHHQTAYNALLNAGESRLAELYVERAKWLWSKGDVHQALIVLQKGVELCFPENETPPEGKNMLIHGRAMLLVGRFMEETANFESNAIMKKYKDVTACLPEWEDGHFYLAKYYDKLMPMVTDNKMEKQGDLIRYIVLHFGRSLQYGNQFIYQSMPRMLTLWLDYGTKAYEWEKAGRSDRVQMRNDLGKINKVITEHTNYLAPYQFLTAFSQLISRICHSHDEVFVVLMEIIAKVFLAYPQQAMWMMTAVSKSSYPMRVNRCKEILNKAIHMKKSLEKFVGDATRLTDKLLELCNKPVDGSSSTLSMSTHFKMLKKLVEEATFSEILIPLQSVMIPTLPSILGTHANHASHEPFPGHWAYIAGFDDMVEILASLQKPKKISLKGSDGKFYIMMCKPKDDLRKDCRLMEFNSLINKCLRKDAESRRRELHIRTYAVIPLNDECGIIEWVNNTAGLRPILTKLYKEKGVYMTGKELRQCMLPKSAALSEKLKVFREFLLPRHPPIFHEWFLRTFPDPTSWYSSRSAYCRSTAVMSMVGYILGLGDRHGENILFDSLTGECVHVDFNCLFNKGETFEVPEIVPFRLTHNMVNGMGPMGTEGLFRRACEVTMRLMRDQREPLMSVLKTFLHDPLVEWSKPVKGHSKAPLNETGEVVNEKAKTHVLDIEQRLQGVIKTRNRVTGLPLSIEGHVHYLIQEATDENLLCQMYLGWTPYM
Chain of ATR/ATRIP complex (Q8WXE1 whole entry partner): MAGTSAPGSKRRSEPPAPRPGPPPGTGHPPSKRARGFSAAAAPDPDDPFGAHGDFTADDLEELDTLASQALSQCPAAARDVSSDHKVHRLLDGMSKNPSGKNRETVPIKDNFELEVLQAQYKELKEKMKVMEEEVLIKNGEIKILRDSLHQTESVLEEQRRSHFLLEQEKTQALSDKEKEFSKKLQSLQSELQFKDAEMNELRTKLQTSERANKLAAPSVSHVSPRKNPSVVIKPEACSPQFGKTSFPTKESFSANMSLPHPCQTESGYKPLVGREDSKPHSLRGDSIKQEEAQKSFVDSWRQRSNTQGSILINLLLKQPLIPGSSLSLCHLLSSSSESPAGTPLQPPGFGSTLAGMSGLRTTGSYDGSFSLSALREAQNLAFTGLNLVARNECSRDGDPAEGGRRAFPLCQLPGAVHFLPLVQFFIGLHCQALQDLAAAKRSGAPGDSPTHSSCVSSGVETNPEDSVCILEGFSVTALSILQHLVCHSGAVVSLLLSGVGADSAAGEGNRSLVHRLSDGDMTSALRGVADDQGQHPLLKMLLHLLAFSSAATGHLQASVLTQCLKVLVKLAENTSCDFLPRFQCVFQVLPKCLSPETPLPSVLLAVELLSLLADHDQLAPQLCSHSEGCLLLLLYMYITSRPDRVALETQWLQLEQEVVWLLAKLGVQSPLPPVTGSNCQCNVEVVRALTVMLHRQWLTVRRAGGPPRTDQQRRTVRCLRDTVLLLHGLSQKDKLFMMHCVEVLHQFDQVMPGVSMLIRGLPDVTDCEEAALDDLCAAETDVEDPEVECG

Row | IC50 [1, 2] [nM] | IC50 (ATR/ATRIP complex; [3]) [nM] | IC50 (ATR/ATRIP complex; [4]) [nM] | IC50 ([1]; HT-29 cells) [nM] | SMILES
1 | 15 | 183 | – | – | C[C@@H]1Cc2ncnc(N3CC(C(C)(C)O)C3)c2CN1c1cc(Cl)nc2[nH]ccc12 [Example 33, 2-{1-[(7R)-6-{6-chloro-1H-pyrrolo[2,3-b]pyridin-4-yl}-7-methyl-5H,6H,7H,8H-pyrido[4,3-d]pyrimidin-4-yl]azetidin-3-yl}propan-2-ol]
2 | 32 | 163 | – | – | C[C@@H]1Cc2ncnc(C3CCN(S(C)(=O)=O)CC3)c2CN1c1cc(Cl)nc2[nH]ccc12 [Example 7, (R)-6-(6-Chloro-1H-pyrrolo[2,3-b]pyridin-4-yl)-7-methyl-4-(1-(methylsulfonyl)-piperidin-4-yl)-5,6,7,8-tetrahydropyrido[4,3-d]pyrimidine bis(trifluoroacetate)]
3 | 133 | 420 | – | – | C[C@@H]1Cc2ncnc(N3CCCC(S(C)(=O)=O)C3)c2CN1c1ccnc2[nH]ccc12 (stereo partly drawn) [Example 18, 3-methanesulfonyl-1-[(7R)-7-methyl-6-{1H-pyrrolo[2,3-b]pyridin-4-yl}-5H,6H,7H,8H-pyrido[4,3-d]pyrimidin-4-yl]piperidine]
4 | 97 | – | 1000 to 10000 | – | C[C@@H]1Cc2ncnc(N3CCN(S(C)(=O)=O)CC3)c2CN1c1cc(Cl)nc2[nH]ccc12 [Example 20, 1-[(7R)-6-{6-chloro-1H-pyrrolo[2,3-b]pyridin-4-yl}-7-methyl-5H,6H,7H,8H-pyrido[4,3-d]pyrimidin-4-yl]-4-methanesulfonyl-piperazine]
5 | 39 | 378 | – | – | C[C@@H]1Cc2ncnc(N3CCCC(C(C)(C)O)C3)c2CN1c1cc(Cl)nc2[nH]ccc12 (stereo in doubt) [Example 45, 2-((R)-1-((R)-6-(6-Chloro-1H-pyrrolo[2,3-b]pyridin-4-yl)-7-methyl-5,6,7,8-tetrahydropyrido[4,3-d]pyrimidin-4-yl)piperidin-3-yl)propan-2-ol]
6 | – | 435 | – | 79 | C[C@@H]1Cc2ncnc([C@H]3CCN(S(C)(=O)=O)C(C)(C)C3)c2CN1c1ccnc2[nH]ccc12 (single isomer, unassigned) [Example 48b]
7 | 162 | – | 1000 to 10000 | – | C[C@@H]1Cc2ncnc(N3CCCN(S(C)(=O)=O)CC3)c2CN1c1ccnc2[nH]ccc12 [Example 19, 1-methanesulfonyl-4-[(7R)-7-methyl-6-{1H-pyrrolo[2,3-b]pyridin-4-yl}-5H,6H,7H,8H-pyrido[4,3-d]pyrimidin-4-yl]-1,4-diazepane]
8 | 209 | 878 | – | – | CS(=O)(=O)N1CCC(c2ncnc3c2CN(c2ccnc4[nH]ccc24)[C@H](CF)C3)CC1 [Example 52b, (S)-7-(fluoromethyl)-4-(1-(methylsulfonyl)piperidin-4-yl)-6-(1H-pyrrolo[2,3-b]pyridin-4-yl)-5,6,7,8-tetrahydropyrido[4,3-d]pyrimidine]
9 | 9 | 140 | – | – | CNC(=O)[C@H]1CCCN(c2ncnc3c2CN(c2cc(Cl)nc4[nH]ccc24)[C@H](C)C3)C1 [Example 67, (S)-1-((R)-6-(6-chloro-1H-pyrrolo[2,3-b]pyridin-4-yl)-7-methyl-5,6,7,8-tetrahydropyrido[4,3-d]-pyrimidin-4-yl)-N-methylpiperidine-3-carboxamide]
10 | – | 1470 | – | 394 | C[C@@H]1Cc2ncnc([C@H]3CCN(S(C)(=O)=O)C3)c2CN1c1ccnc2[nH]ccc12 [Example 57b, (R)-7-methyl-4-((S)-1-(methylsulfonyl)pyrrolidin-3-yl)-6-(1H-pyrrolo[2,3b]-pyridin-4-yl)-5,6,7,8-tetrahydropyrido[4,3-d]pyrimidine]
11 | – | – | 1000 to 10000 | – | C[C@@H]1Cc2ncnc(C3CCN(S(C)(=O)=O)CC3)c2CN1c1ncnc2[nH]ccc12 [Example 43, (R)-7-methyl-4-(1-(methylsulfonyl)piperidin-4-yl)-6-(7H-pyrrolo[2,3-d]pyrimidin-4-yl)-5,6,7,8-tetrahydropyrido[4,3-d] pyrimidine]
12 | – | 615 | – | – | C[C@@H]1Cc2ncnc(N3CCC(S(C)(=O)=O)CC3)c2CN1c1ccnc2[nH]ccc12 [Example 88, (R)-7-methyl-4-(4-(methylsulfonyl)-piperidin-1-yl)-6-(1H-pyrrolo[2,3-b]pyridin-4-yl)-5,6,7,8-tetrahydro-pyrido[4,3-d]pyrimidine]
13 | 34 | – | – | – | C[C@@H]1Cc2ncnc(N3CC(NS(C)(=O)=O)C3)c2CN1c1cc(Cl)nc2[nH]ccc12 [Example 35, N-{1-[(7R)-6-{6-chloro-1H-pyrrolo[2,3-b]pyridin-4-yl}-7-methyl-5H,6H,7H,8H-pyrido[4,3-d]pyrimidin-4-yl]azetidin-3-yl}methanesulfonamide]
14 | 128 | – | – | – | C[C@@H]1Cc2ncnc(N3CC(S(C)(=O)=O)C3)c2CN1c1ccnc2[nH]ccc12 [Example 36, 3-methanesulfonyl-1-[(7R)-7-methyl-6-{1H-pyrrolo[2,3-b]pyridin-4-yl}-5H,6H,7H,8H-pyrido[4,3-d]pyrimidin-4-yl]azetidine]
15 | – | – | – | 11 | C[C@@H]1Cc2ncnc([C@@H]3CCCN(S(C)(=O)=O)C3)c2CN1c1cc(Cl)nc2[nH]ccc12 (single isomer, unassigned) [Example 51a]
16 | – | – | – | 48 | C[C@@H]1Cc2ncnc([C@H]3CCCN(S(C)(=O)=O)C3)c2CN1c1cc(Cl)nc2[nH]ccc12 (single isomer, unassigned) [Example 51b]
17 | 27 | – | – | – | C[C@@H]1Cc2ncnc(N3C[C@H]4CC[C@@H](C3)[C@H]4NS(C)(=O)=O)c2CN1c1cc(Cl)nc2[nH]ccc12 [Example 39, N-((1R,5S)-(8-syn)-3-((R)-6-(6-chloro-1H-pyrrolo[2,3-b]pyridin-4-yl)-7-methyl-5,6,7,8-tetrahydropyrido[4,3-d]pyrimidin-4-yl)-3-azabicyclo[3.2.1]octan-8-yl)methanesulfonamide]

Row | SMILES | IC50 [1, 2] [nM] | IC50 (ATR/ATRIP complex; [3]) [nM] | IC50 (ATR/ATRIP complex; [4]) [nM] | IC50 ([1]; HT-29 cells) [nM]
18 | C[C@@H]1Cc2ncnc(C3C[C@H]4CC[C@@H](C3)N4S(C)(=O)=O)c2CN1c1cc(Cl)nc2[nH]ccc12 (single isomer, unassigned) [Example 11a] | – | 555 | – | 28
